Laboratory results as given in patent EP4714938A1, “HDAC1/2 SELECTIVE INHIBITOR AND USE THEREOF” (Wigen Biomedicine Technology (Shanghai) Co., Ltd., priority 2023, dated 2024).
Like-named read-outs stand apart in the source and are kept apart here.

What was measured:
HDAC1 = HDAC1 (Homo sapiens, UniProt Q13547); assay: HDAC enzyme inhibitory activity, FRET method; assay type: biochemical
HDAC2 = HDAC2 (Homo sapiens, UniProt Q92769); assay: HDAC enzyme inhibitory activity, FRET method; assay type: biochemical
Experimental: (§3) The compounds of the present disclosure were assayed for enzyme inhibitory activity against various subtypes of HDAC enzymes by the FRET method. The various subtypes of HDAC enzymes were obtained either through purification or direct purchase of assay kits.
(§4) The specific method was as follows: The enzyme was added to a 384-well plate, and a reaction buffer was added to the control well. Serially diluted DMSO sample solutions were added to the reaction wells, and the plate was incubated at room temperature for 15 min. Then a chromogenic agent was added to stop the reaction, and fluorescence was generated. The fluorescence intensity was measured using an EnVision multi-label microplate reader (excitation: 355 nm, emission: 460 nm). The endpoint value was read after the color development reached stability. The inhibition IC50 of the compounds was calculated using GraphPad Prism4 software relative to DMSO.

HDAC3 = HDAC3 (Homo sapiens, UniProt O15379); assay: HDAC enzyme inhibitory activity, FRET method; assay type: biochemical
Experimental: as §3, §4

[1] = Stability in liver microsomes; assay type: in vitro ADME; conditions: for half-life at 1 µM / T1/2: 1 µM compound, 37 °C, NADPH regeneration system; for Clint: 1 µM
Experimental: After the 1 µM compound was individually incubated at 37 °C for various durations with […] liver microsomes from humans, monkeys, beagles, rats, or mice in the presence of an NADPH regeneration system, LC-MS-MS was used to analyze the remaining amount of the compound, and T1/2 was calculated. Table 10. Evaluation results of stability of compounds of the present disclosure in human and mouse liver microsomes

293T cell = assay: Inhibition of cell proliferation (CTG, intracellular ATP); assay type: cell-based; conditions: Homo sapiens, HEK-293T, 72 h
Experimental: (§1) Jurkat or 293T cells were seeded into a 96-well plate at 3000 cells/well. After overnight adherence culture, the serially diluted compound in DMSO was added. After 72 h, the intracellular ATP level was determined by CTG. The IC50 for the inhibition of cell proliferation by the compounds was calculated compared to the DMSO group. Table 7. Inhibitory activity of compounds of the present disclosure against Jurkat/293T cell proliferation (IC50, µM)

Jurkat cell = assay: as above; assay type: cell-based; conditions: 72 h
Experimental: as §1

Acetyl lysine = assay: Intracellular acetyl lysine level by ELISA in HeLa cells; assay type: cell-based; conditions: 24 h of treatment
Experimental: (§2) HeLa cells were seeded into a 96-well plate at 20000 cells/well. After overnight adherence culture, the serially diluted compound was added. After 24 h of treatment, intracellular levels of acetyl lysine and H3K 27 acetyl lysine were quantified by ELISA. Table 8. Effect of compound of the present disclosure on levels of acetyl lysine and H3K 27 acetyl lysine

H3K 27 Acetyl lysine = assay: Intracellular H3K 27 acetyl lysine level by ELISA in HeLa cells; assay type: cell-based; conditions: 24 h of treatment
Experimental: as §2

HDAC10 = target: T1, HDAC10 (Homo sapiens, UniProt Q969S8); conditions: read-out: IC50 HDAC subtype 10; Table 6
T1 sequence (Q969S8 1-669): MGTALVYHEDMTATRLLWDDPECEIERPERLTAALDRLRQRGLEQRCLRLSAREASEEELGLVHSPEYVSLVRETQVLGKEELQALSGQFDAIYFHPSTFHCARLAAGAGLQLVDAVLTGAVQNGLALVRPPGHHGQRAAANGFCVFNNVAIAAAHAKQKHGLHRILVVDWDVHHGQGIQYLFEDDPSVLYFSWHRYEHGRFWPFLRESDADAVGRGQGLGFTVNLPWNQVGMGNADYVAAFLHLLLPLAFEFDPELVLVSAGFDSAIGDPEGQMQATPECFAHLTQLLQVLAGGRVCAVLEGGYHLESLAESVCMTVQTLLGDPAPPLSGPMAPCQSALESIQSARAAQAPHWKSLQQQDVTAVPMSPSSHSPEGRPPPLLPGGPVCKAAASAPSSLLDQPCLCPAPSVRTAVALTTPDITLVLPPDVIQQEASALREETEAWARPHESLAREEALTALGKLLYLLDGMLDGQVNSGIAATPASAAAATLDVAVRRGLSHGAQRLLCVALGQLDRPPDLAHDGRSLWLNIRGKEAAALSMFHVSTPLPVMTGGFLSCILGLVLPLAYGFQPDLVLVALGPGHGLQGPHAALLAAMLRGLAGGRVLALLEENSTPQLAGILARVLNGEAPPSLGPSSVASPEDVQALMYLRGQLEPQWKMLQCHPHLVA
Experimental: as §3, §4

[2] = test system: Mouse colon cancer MC38 cells; conditions: MC-38
Experimental: Female C57BL6N mice (aged 6 weeks, 18-22 g) were provided by Vital River Laboratory Animal Technology Co., Ltd. (China) and used one week after quarantine and acclimation. All animals were kept in a room at 23±2 °C with a relative humidity of 50±5%, artificial lighting was provided from 08:00 to 20:00 every day, and the air was exchanged 13-18 times per hour.
Mouse colon cancer MC38 cells were cultured conventionally in 1640 medium containing 10% fetal bovine serum in an incubator at 37 °C with 5% CO2. After being subcultured, the cells were collected when they reached the desired amount. The C57BL6N mice were subcutaneously injected with 2 × 10^6 MC38 cells on the right side to form tumors. After the tumors grew to about 100 mm^3, the animals were randomly grouped for administration. Tumor volumes were measured with a caliper on day 3, day 7, day 10, day 14, day 17, and day 21 after the administration. The ability of the compounds to inhibit tumor growth was evaluated according to the tumor growth inhibition rate (TGI) = 1 - (tumor volume on day 28 in treatment group - tumor volume on day 1 in treatment group)/(tumor volume on day 28 in control group - tumor volume on day 1 in control group). The toxicity of the compounds was evaluated according to the body weight and state of the mice.
The groups were as follows: 1) solvent control group; 2) PD-1+Reg group; 3) Compound 1 group; 4) Reference Compound group; 5) compound 1 (10mg/kg) and PD-1+Reg Combination group; 6) compound 1 (30mg/kg) and PD-1+Reg Combination group; 7) compound 1 (90mg/kg) and PD-1+Reg Combination group; 8) Reference Compound (10mg/kg) and PD-1+Reg Combination group; 9) Reference Compound (30mg/kg) and PD-1+Reg Combination group; 10) Reference Compound (90mg/kg) and PD-1+Reg Combination group, with 6 mice per group.
Reg represents Regorafenib PD-1 represents an anti-PD-1 antibody; IV represents administration via intravenous injection; PO represents oral administration; QD represents once-daily administration; QW represents once-weekly administration; CR represents complete remission (complete disappearance of the tumor after the dosing cycle is completed); PR represents partial response (tumor volume reduction exceeding 30% relative to the initial volume upon completion of the administration cycle); SD represents stable disease (tumor volume reduction or growth not exceeding 30% relative to the initial volume upon completion of the administration cycle); Died represents mouse died before the dosing cycle is completed; Administration period* is once daily (QD) for 10 consecutive days, followed by a 16-day off-treatment period; the once-weekly (QW) regimen is administered only on Day 1 and Day 8.

[3] = test system: Mouse colon cancer CT-26 cells; conditions: for Tumor response, number of mice (CR/PR/SD): 6 mice per group; for TGI(%): QD for 14 consecutive days, PO
Experimental: Female BALB/c mice (aged 6 weeks, 18-22 g) were provided by Vital River Laboratory Animal Technology Co., Ltd. (China) and used one week after quarantine and acclimation. All animals were kept in a room at 23±2 °C with a relative humidity of 50±5%, artificial lighting was provided from 08:00 to 20:00 every day, and the air was exchanged 13-18 times per hour.
Mouse colon cancer CT-26 cells were cultured conventionally in 1640 medium containing 10% fetal bovine serum in an incubator at 37 °C with 5% CO2. After being subcultured, the cells were collected when they reached the desired amount. The BALB/c mice were subcutaneously injected with 2 × 10^5 CT-26 cells on the right side to form tumors. After the tumors grew to about 100 mm^3, the animals were randomly grouped for administration. Tumor volumes were measured with a caliper on day 3, day 7, day 10, day 14, day 17, and day 21 after the administration. The ability of the compounds to inhibit tumor growth was evaluated according to the tumor growth inhibition rate (TGI) = 1 - (tumor volume on day 28 in treatment group - tumor volume on day 1 in treatment group)/(tumor volume on day 28 in control group - tumor volume on day 1 in control group). The toxicity of the compounds was evaluated according to the body weight and state of the mice.

Chain of HDAC2 (Q92769 whole entry, species assumed): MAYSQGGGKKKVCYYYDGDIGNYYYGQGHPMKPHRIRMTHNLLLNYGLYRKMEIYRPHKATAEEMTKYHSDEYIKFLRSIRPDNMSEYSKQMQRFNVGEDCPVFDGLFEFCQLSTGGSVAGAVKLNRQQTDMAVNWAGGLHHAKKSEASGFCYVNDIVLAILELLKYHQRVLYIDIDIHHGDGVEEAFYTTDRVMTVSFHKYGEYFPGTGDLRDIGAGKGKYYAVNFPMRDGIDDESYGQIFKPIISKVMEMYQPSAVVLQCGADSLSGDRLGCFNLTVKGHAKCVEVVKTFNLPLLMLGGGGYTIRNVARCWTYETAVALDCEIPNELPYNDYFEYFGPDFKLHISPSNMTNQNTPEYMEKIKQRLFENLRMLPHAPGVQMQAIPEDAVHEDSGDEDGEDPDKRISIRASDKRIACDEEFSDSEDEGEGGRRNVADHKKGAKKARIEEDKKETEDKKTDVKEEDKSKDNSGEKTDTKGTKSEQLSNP
Chain of HDAC1 (Q13547 whole entry, species assumed): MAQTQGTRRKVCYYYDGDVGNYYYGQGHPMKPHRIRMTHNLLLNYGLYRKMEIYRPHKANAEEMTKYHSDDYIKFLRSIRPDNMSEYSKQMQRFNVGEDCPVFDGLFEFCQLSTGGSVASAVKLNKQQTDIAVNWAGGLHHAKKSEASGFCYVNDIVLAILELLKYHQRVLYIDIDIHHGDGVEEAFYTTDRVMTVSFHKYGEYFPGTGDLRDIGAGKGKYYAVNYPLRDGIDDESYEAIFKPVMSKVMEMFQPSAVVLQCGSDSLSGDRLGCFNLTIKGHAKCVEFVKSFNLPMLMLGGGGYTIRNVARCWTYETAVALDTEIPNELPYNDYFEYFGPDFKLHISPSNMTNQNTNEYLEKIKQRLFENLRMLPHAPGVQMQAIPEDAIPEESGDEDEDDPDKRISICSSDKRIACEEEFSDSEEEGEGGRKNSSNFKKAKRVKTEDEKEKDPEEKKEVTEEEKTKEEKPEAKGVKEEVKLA
Chain of HDAC3 (O15379 whole entry, species assumed): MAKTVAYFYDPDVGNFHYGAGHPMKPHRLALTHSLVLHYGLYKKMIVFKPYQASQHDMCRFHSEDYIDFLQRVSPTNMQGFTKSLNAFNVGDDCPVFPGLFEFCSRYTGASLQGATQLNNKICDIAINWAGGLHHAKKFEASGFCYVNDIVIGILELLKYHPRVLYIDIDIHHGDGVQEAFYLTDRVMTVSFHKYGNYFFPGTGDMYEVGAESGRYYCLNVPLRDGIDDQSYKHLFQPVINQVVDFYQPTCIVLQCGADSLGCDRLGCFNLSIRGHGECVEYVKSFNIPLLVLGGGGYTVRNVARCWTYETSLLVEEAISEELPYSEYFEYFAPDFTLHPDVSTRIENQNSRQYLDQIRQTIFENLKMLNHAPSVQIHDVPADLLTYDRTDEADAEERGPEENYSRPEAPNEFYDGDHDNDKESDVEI
Chain of HDAC3 (Q9Y618 395-489 partner limits assumed, species assumed): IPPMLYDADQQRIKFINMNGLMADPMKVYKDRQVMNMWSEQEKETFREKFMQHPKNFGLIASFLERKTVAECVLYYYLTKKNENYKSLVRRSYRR

Row | SMILES | IC50 (HDAC1; Table 5, read-out: IC50 HDAC1) | IC50 (HDAC2; Table 5, read-out: IC50 HDAC2) | IC50 (HDAC3; Table 5, read-out: IC50 HDAC3) | CLint scaled at 1 µM ([1]; Human liver microsomes) | Clliver ([1]; Human liver microsomes) | half-life at 1 µM ([1]; Human liver microsomes) | CLint scaled at 1 µM ([1]; Mouse liver microsomes) | Clliver ([1]; Mouse liver microsomes) | half-life at 1 µM ([1]; Mouse liver microsomes) | Acetyl lysine Maximum (%) (Acetyl lysine) | Acetyl lysine Minimum effective concentration (Acetyl lysine) | H3K 27 Acetyl lysine Maximum (%) (H3K 27 Acetyl lysine) | H3K 27 Acetyl lysine Minimum effective concentration (H3K 27 Acetyl lysine) | also measured
1 | CS(C)(=O)=Nc1ccc(C(=O)Nc2cc(-c3ccc(F)s3)ccc2N)cc1 [Compound 33] | < 30 nM | 30 to 300 nM | > 3000 nM | 8.26 mL/min/kg | 5.91 mL/min/kg | 3.51 h | 0.45 mL/min/kg | 0.45 mL/min/kg | 201 h | – | – | – | – | –
2 | Nc1ccc(-c2ccc(F)cc2)cc1NC(=O)c1ccc(N=S2(=O)CCCC2)cc1 [Compound 57] | < 30 nM | 30 to 300 nM | > 3000 nM | 7.51 mL/min/kg | 5.51 mL/min/kg | 3.86 h | 33 mL/min/kg | 24.16 mL/min/kg | 2.75 h | – | – | – | – | –
3 | CN1CCS(=O)(=Nc2ccc(C(=O)Nc3cc(-c4ccc(F)cc4)ccc3N)cc2)CC1 [Compound 67] | < 30 nM | 30 to 300 nM | > 3000 nM | – | – | – | – | – | – | 570% | 16 nM | 300% | 16 nM | IC50 (HDAC1; Table 4, read-out: IC50 HDAC1): < 500 nM; IC50 (HDAC2; Table 4, read-out: IC50 HDAC2): < 500 nM; IC50 (HDAC3; Table 4, read-out: IC50 HDAC3): > 5000 nM; IC50 (293T cell): > 10000 nM; IC50 (Jurkat cell; Homo sapiens, Jurkat): 300 nM
4 | CS(=O)(=O)Nc1ccc(C(=O)Nc2cc(-c3ccc(F)cc3)ccc2N)cc1 [Reference Compound, N-(4-amino-4'-fluoro-[1,1'-biphenyl]-3-yl)-4-(S-methylsulfonamido) benzamide, reference compound] | 30 to 300 nM | 30 to 300 nM | > 3000 nM | – | 11.68 mL/min/kg | – | – | 9.20 mL/min/kg | – | 350% | 80 nM | 190% | 80 nM | IC50 (HDAC1; Table 6, read-out: IC50 HDAC subtype 1): 44.4 nM; IC50 (HDAC2; Table 6, read-out: IC50 HDAC subtype 2): 178 nM; IC50 (HDAC3; Table 6, read-out: IC50 HDAC subtype 3): 8280 nM; IC50 (Jurkat cell): 1940 nM; T1/2 ([1]; Human liver microsomes): 1.082 h; Clint ([1]; Human liver microsomes): 26.78 mL/min/kg; T1/2 ([1]; Mouse liver microsomes): 8.874 h; Clint ([1]; Mouse liver microsomes): 10.25 mL/min/kg; IC50 (HDAC10): 83.2 nM; Change in body weight(%) ([2]; monotherapy 90 mg/kg QD PO): 17.04 ± 1.54%; Tumor response, number of mice (CR/PR/SD) ([2]; monotherapy 90 mg/kg QD PO, CR complete remission, PR partial response, SD stable disease, 6 mice per group): 1PR; TGI(%) ([2]; monotherapy 90 mg/kg, QD for 10 consecutive days, PO): 73.90%; Change in body weight(%) ([3]; monotherapy 30 mg/kg QD PO): 4.73±1.54%; Tumor response, number of mice (CR/PR/SD) ([3]; monotherapy 30 mg/kg QD PO): 1PR; TGI(%) ([3]; monotherapy 30 mg/kg): 56.10%; Change in body weight(%) ([3]; monotherapy 90 mg/kg QD PO): -3.53±2.89%; Tumor response, number of mice (CR/PR/SD) ([3]; monotherapy 90 mg/kg QD PO): 1PR+2SD; TGI(%) ([3]; monotherapy 90 mg/kg): 95.93%
